The values that follow are results of earlier work, collected in patent publication US20230025663A1, “NANOFORMULATION WITH DIVERSE FUNCTIONAL MOLECULES FROM TURMERIC AND PROCESS FOR PREPARATION OF THE SAME” (ZEROHARM SCIENCES PRIVATE LIMITED, priority 2021, published 2023).

Usually bioavailability stands for dose-corrected exposure relative to a reference, in per cent.

The conditions of the data set: in vivo.

With `COc1cc(/C=C/C(=O)CC(=O)/C=C/c2ccc(O)c(OC)c2)ccc1O` [curcumin], the bioavailability is reported as around 1%.
